Data reported in paper PMC12482674 (Alzheimer's Research & Therapy, 2025).
Where a name gives a salt, the structure may show the parent alone.

Tests used:
[1] = biological target: AD brain-derived tau seeds (Homo sapiens, UniProt P10636, C639S); assay: biochemical; type: biochemical; conditions: for inhibition at 100 µM: read-out: percent inhibition (vehicle AUC 100% minus percent AUC of compound); for percent inhibition (vehicle AUC 100% minus percent AUC of compound): 100 µM
[2] = tested on: tau oligomers; conditions: mouse models; cited from earlier work
[3] = biological target: tau (Homo sapiens, UniProt P10636, C639S); assay: Transmission electron microscopy of Tau-SAA end products; type: biochemical; conditions: SAA end products (total fraction) of 100 µM reactions
[4] = tested on: 2N4R; conditions: cited from earlier work
[5] = tested on: hyperphosphorylated tau; conditions: mouse, in vivo; cited from earlier work
[6] = Phase III; cited from earlier work
[7] = patients receiving the drug; cited from earlier work
[8] = tested on: tau peptides; conditions: cited from earlier work

Sequence of tau (P10636 1-352 isoform P10636-2 C233S): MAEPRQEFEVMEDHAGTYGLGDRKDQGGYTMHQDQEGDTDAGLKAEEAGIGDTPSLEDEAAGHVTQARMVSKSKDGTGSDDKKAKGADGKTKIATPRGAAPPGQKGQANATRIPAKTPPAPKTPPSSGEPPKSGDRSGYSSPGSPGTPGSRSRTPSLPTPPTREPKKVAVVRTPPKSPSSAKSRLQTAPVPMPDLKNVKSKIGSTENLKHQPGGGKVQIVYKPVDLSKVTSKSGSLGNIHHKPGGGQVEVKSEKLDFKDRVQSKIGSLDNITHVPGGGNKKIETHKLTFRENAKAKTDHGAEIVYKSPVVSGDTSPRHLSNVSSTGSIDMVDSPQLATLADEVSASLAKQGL
Sequence of AD brain-derived tau seeds (P10636 1-352 isoform P10636-2 C233S): as above

O=C(/C=C/c1ccc(O)c(O)c1)O[C@H](Cc1ccc(O)c(O)c1)C(=O)O [rosmarinic acid]
inhibition at 100 µM [1]: > 95%

CN(C)c1ccc2nc3ccc(N)cc3[s+]c2c1.[Cl-] [Azure A, azure A]
maximum thioflavin fluorescence (ThT Max) [1]: approaching the baseline | percent inhibition (vehicle AUC 100% minus percent AUC of compound) [1]: > 95%

CCN(CC)CCCC(C)Nc1c2ccc(Cl)cc2nc2ccc(OC)cc12 (stereo not drawn) [quinacrine hydrochloride]
maximum thioflavin fluorescence (ThT Max) [1]: reduced ThT Max across all dilutions | time to threshold (TTT) [1]: only delay TTT at higher dilutions

CO[C@H]1/C=C/O[C@@]2(C)Oc3c(C)c(O)c4c(O)c(c(/C=N/N5CCN(C)CC5)c(O)c4c3C2=O)NC(=O)/C(C)=C\C=C\[C@H](C)[C@H](O)[C@@H](C)[C@@H](O)[C@@H](C)[C@H](OC(C)=O)[C@@H]1C [Rifampin]
spread of tau oligomers and cognitive function [2]: limit the spread of tau oligomers and improve cognitive function | aggregates seen by TEM [3]: devoid of fibrillar amyloid structures

COc1ccc2c(c1)c(CC(=O)O)c(C)n2C(=O)c1ccc(Cl)cc1 [Indomethacin]
aggregates seen by TEM [3]: widespread amyloid-like aggregates

CNc1ccc2nc3ccc(N)cc3[s+]c2c1 [azure C]
inhibition at 100 µM [1]: > 95%

C=CCc1ccc(O)c(-c2ccc(O)c(CC=C)c2)c1 [honokiol]
inhibition at 100 µM [1]: 94%

Brc1cccc(-c2cc(-c3ccc4c(c3)OCO4)[nH]n2)c1 [anle138b]
inhibition at 100 µM [1]: -25.9% | inhibition of spontaneous 2N4R aggregate formation [4]: inhibits the in vitro formation of spontaneous 2N4R aggregates | hyperphosphorylated tau burden and survival [5]: reduces hyperphosphorylated tau burden and prolongs survival

O=c1cc(-c2ccccc2)oc2cc(O)c(O)c(O)c12 [baicalein]
inhibition at 100 µM [1]: > 95%

Nc1ccc2nc3ccc(N)cc3[s+]c2c1 [Thionin, thionin]
maximum thioflavin fluorescence (ThT Max) [1]: approaching the baseline | percent inhibition (vehicle AUC 100% minus percent AUC of compound) [1]: over 99%

CN(C)c1ccc2c(c1)Sc1cc(N(C)C)ccc1N2.CS(=O)(=O)O.CS(=O)(=O)O [LMTX]
primary efficacy outcomes [6]: did not reach primary efficacy outcomes

O=S(=O)(O)c1cc(S(=O)(=O)O)c2c(/N=N/c3ccccc3)c(O)ccc2c1 [Orange-G]
inhibition at 100 µM [1]: 39%

Cc1ccc(C(=O)c2cc(O)c(O)c([N+](=O)[O-])c2)cc1 [tolcapone]
inhibition at 100 µM [1]: 78%

O=C(c1cc(O)c(O)c(O)c1)c1ccc(O)c(O)c1O [Exifone]
IC50 [1]: 11.2 µM | inhibition at 100 µM [1]: > 95%

O=c1c(O)c(-c2cc(O)c(O)c(O)c2)oc2cc(O)cc(O)c12 [myricetin]
inhibition at 100 µM [1]: > 95%

CCN(CC)CCNC(=O)c1c(C)[nH]c(/C=C2\C(=O)Nc3ccc(F)cc32)c1C [Sunitinib]
inhibition at 100 µM [1]: 98.6% | aggregates seen by TEM [3]: widespread amyloid-like aggregates

CC(=O)c1c(O)c(C)c(O)c2c1OC1=CC(=O)C(C(C)=O)C(=O)C12C (stereo not drawn) [usnic acid]
inhibition at 100 µM [1]: 21.5%

CNc1ccc2nc3ccc(=[N+](C)C)cc-3sc2c1.[Cl-] [azure B]
percent inhibition (vehicle AUC 100% minus percent AUC of compound) [1]: > 95%

CN(C)c1ccc2nc3ccc(=[N+](C)C)cc-3sc2c1 [Methylene Blue]
inhibition at 100 µM [1]: > 99%

Nc1c(/N=N/c2ccc(-c3ccc(/N=N/c4cc(S(=O)(=O)O)c5ccccc5c4N)cc3)cc2)cc(S(=O)(=O)O)c2ccccc12 [Congo Red, Congo red]
maximum thioflavin fluorescence (ThT Max) [1]: approaching the baseline | inhibition at 100 µM [1]: > 95%

COc1cccc2c1C(=O)c1c(O)c3c(c(O)c1C2=O)C[C@@](O)(C(=O)CO)C[C@@H]3O[C@H]1C[C@H](N)[C@@H](O)[C@H](C)O1 [Epirubicin]
IC50 [1]: 6.6 µM | inhibition at 100 µM [1]: > 99%

COc1cc(/C=C/C(=O)CC(=O)/C=C/c2ccc(O)c(OC)c2)ccc1O [curcumin]
cognitive outcome [7]: improvements in attention, long-term retrieval, and visual memory | tau and Aβ burden by PET ligand binding [7]: decreased tau and Aβ burden

Oc1cc(O)c2c(c1)O[C@H](c1ccc(O)c(O)c1)[C@@H](O)C2 [(+)-catechin]
percent inhibition (vehicle AUC 100% minus percent AUC of compound) [1]: 89%

CC[C@@]1(O)C(=O)OCc2c1cc1n(c2=O)Cc2cc3c(CN(C)C)c(O)ccc3nc2-1 [topotecan]
inhibition at 100 µM [1]: 92% | inhibition of fibrillization of tau peptides [8]: only mildly inhibited
